What was measured:
isolated wild type TTR = molecular target: T1, isolated wild type TTR (Homo sapiens, UniProt P02766); assay: Displacement of 125I-T4 from isolated wild type TTR in buffer; settings: concentration of ligand reducing binding of 125I-T4 by TTR by 50%; 125 nM TTR, pH 8.0, overnight 4° C.; mean of at least 3 replicates; read-out: D50 buffer
T1 construct: the non-covalently associated protomers, of mass 13,761, each contain 127 residues; His6 (N); TEV cleavage site (N); made in house; host or cells: E. coli BL21 (DE3)
Procedure: 3. Evaluation of Ligand Activity Based on Capacity to Displace ^125I-Thyroxine (T4) from TTR in Buffer/Human Plasma 3.1 Displacement of ^125I-T4 from Isolated Wild Type TR.
Competition of ligands with T4 for binding by TTR was assayed quantitatively by a previously described procedure (Kolstoe et al., 2010). Briefly, a solution of 125 nM TTR in 0.1 M Tris-HCl, 0.1 M NaCl and 0.001 M EDTA buffer, pH 8.0, was incubated overnight at 4° C. in the presence of 1.07 nM ^125I T4 (1,200 μCi/μg, 200 μCi/ml, Perkin Elmer) and increasing concentrations of inhibitor (0-5 μM) in 40 μl final volume. ^125I T4 bound by TTR was separated from unbound T4 by gel filtration chromatography using Micro Bio Spin 6 columns (Bio-Rad) previously equilibrated with the reaction buffer containing 1% w/v BSA. After counting with a Wizard2 gamma counter (Perkin-Elmer) for 60 s, percentage binding was plotted against the logarithm of the inhibitor concentration, and D50 (concentration of ligand reducing the binding of T4 by TTR by 50%) was determined using a four parameters dose-response curve with GraphPad Prism 5 (Table 1).

[1] = molecular target: T2, TTR in whole human plasma (Homo sapiens, UniProt P02766); assay: Displacement of 125I-T4 from TTR in normal human plasma; assay type: binding; settings: wild type TTR, 30 min 37° C. with ligand, immunoprecipitation, mean of at least 3 replicates, read-out: D50 plasma
T2 construct: TTR in whole plasma, from individuals homozygous for wild type TTR; from tissue; host or cells: whole human plasma
Procedure: 3.2 Displacement of ^125-T4 from TTR in Normal Human Plasma.
The displacement of ^125I-T4 from TTR in whole plasma, from individuals homozygous for wild type TTR, was studied by incubating plasma with each ligand at increasing concentrations for 30 min at 37° C., further incubation with […] followed by measurement of the radioactivity in the immunoprecipitate obtained with anti-TTR antibodies. […] Percentage binding was plotted against the logarithm of the inhibitor concentration, and D50 (concentration of ligand reducing the binding of T4 by TTR by 50%) was determined using a four parameter dose-response curve with GraphPad Prism 5 (Table 1).

[2] = molecular target: T3, recombinant Val122Ile TTR (Homo sapiens, UniProt P02766, V142I); assay: Mechano-enzymatic fibrillogenesis, TTR amyloid by ThT emission fluorescence; assay type: biochemical; settings: equimolar ligand, 96 h pellets, normalized to 100 % without ligand, mean (SD)
T3 construct: the non-covalently associated protomers, of mass 13,761, each contain 127 residues; His6 (N); TEV cleavage site (N); made in house; host or cells: E. coli BL21 (DE3)
Procedure: (§1) Briefly, fibrillogenesis of recombinant Val122Ile TTR at 0.5 mg/ml (9 μM) in PBS, pH 7.4 was carried out in glass vials stirred at 1,400 rpm (IKA magnetic stirrer) and 37° C. in the presence and in the absence of trypsin (5 ng/μl). […] Each ligand was tested at 4 different concentrations (4.5, 9, 18, 36 μM respectively) corresponding to the following drug/TTR molar ratios of 0.5:1, 1:1, 2:1 and 4:1. Several dilutions of the drug stock solutions were made in order to add the same volume of DMSO to each sample. Control samples without drug were added with the same volume of DMSO only. To allow complete binding of ligand by TTR each sample was incubated for 30 min at 37° C. before addition of trypsin. Spectrophotometric turbidity at 400 nm was used to monitor fibril formation over time until it reached a plateau at 96 h. Aggregation of TTR in the presence of equimolar ligand concentrations was quantified as spectrophotometric turbidity at 400 nm as a proportion of 100% for aggregation of the protein in the absence of ligands (Table 2).
At the end of the 96 h aggregation, pellets were harvested from each protein sample by 20 min centrifugation at 11,600 g, thoroughly rinsed with PBS to remove non-bound ligand, resuspended with 100 μl PBS, pH 7.4 containing 10 μM ThT in Costar 96-well black-wall plates. Bottom fluorescence values (excitation 440 nm, emission 480 nm) were recorded using a BMG LABTECH FLUostar Omega plate reader. Each value was normalized to the ThT signal of the TTR sample without ligand (Table 2)

[3] = molecular target: T3, recombinant Val122Ile TTR; assay: Mechano-enzymatic fibrillogenesis, TTR aggregation by turbidity at 400 nm; assay type: biochemical; settings: equimolar ligand, Val122Ile TTR 9 μM, trypsin, 96 h; 100 % = protein without ligand; mean (SD)
Procedure: as §1

[4] = molecular target: T4, native recombinant wild type TTR (Homo sapiens, UniProt P02766); assay: Kinetics of ligand binding by TTR (stopped flow quenching of intrinsic fluorescence); settings: TTR 1 μM with equimolar ligand, 37° C., PBS pH 7.4; t½ = ln 2/k
T4 construct: the non-covalently associated protomers, of mass 13,761, each contain 127 residues; His6 (N); TEV cleavage site (N); made in house; host or cells: E. coli BL21 (DE3)
Procedure: Ligand binding by native TTR quenches the intrinsic fluorescence of the protein. After mixing of ligands with TTR in solution, monitoring emission of the intrinsic fluorescence over time defines the rate at which the ligand is bound by the protein. The fast phase of these binding kinetics was characterized using an SFM 3000 stopped flow device coupled to a MOS500 spectrometer with a fluorescence detection system (Bio Logic, Claix, France) and a cell path length of 1.5 mm. TTR and ligands at 37° C. were mixed at final concentrations of 1 μM each in PBS pH 7.4 containing 0.9% v/v DMSO, and were excited at 280 nm for measurement of total fluorescence emission over 325 nm using a cut off filter. Kinetic data were acquired as the average of at least 3 experimental mixings and fitted to a first order reaction using the general formula y(t)=at +b+C exp (−kt), where y(t) is the observed fluorescence, a (slope) and b (offset) corresponding to the baseline. C and k are, respectively, amplitude and rate constant of the observed fluorescence change. Data were analysed using the Biokine software and values of half-life time (t½) correspond to ln 2/k. (Table 3).

Rat IV pharmacokinetics = settings: in vivo, 1 mg/kg, 1 mpk, read-out: Rat IV PK t½ (converted)
[5] = Rat oral pharmacokinetics; settings: in vivo, 5 mg/kg, 5 mpk

| SMILES | IC50 (isolated wild type TTR) | IC50 [1] | % Aggregation (Fluorescence method) [2] | % Aggregation (Turbidity method) [3] | T 1/2 [4] | half-life (Rat IV pharmacokinetics) | Cmax [5] |
| --- | --- | --- | --- | --- | --- | --- | --- |
| O=C(O)CCc1cc(Cl)c(OCC[C@@H](O)[C@H](O)CCOc2c(Cl)cc(-c3nc4ccc(C(=O)O)cc4o3)cc2Cl)c(Cl)c1 [Compound B16, 2-[4-[(3R,4R)-6-[4-(2-carboxyethyl)-2,6-dichloro-phenoxy]-3,4-dihydroxy-hexoxy]-3,5-dichloro-phenyl]-1,3-benzoxazole-6-carboxylic acid] | 90 nM | 14100 nM | 4.76 (3.13) % | 4.42 (1.45) % | 1.415 s | – | – |
| O=C(O)CCc1cc(Cl)c(OCC[C@@H](O)[C@H](O)CCOc2ccc(-c3nc4ccc(C(=O)O)cc4o3)cc2Cl)c(Cl)c1 [Compound B17, 2-[4-[(3R,4R)-6-[4-(2-carboxyethyl)-2,6-dichloro-phenoxy]-3,4-dihydroxy-hexoxy]-3-chloro-phenyl]-1,3-benzoxazole-6-carboxylic acid] | 100 nM | 17300 nM | 3.86 (2.29) % | 4.52 (1.08) % | – | – | – |
| O=C(O)CCc1ccc(OCCCOCCCOc2ccc(-c3nc4ccc(C(=O)O)cc4o3)cc2Cl)c(Cl)c1 [Compound B18, 2-[4-[3-[3-[4-(2-carboxyethyl)-2-chloro-phenoxy]propoxy]propoxy]-3-chloro-phenyl]-1,3-benzoxazole-6-carboxylic acid] | 210 nM | > 100000 nM | 2.45 (1.39) % | 3.31 (0.68) % | – | – | – |
| O=C(O)CCc1ccc(OCCCOCCCOc2c(Cl)cc(-c3nc4ccc(C(=O)O)cc4o3)cc2Cl)c(Cl)c1 [Compound B19, 2-[4-[3-[3-[4-(2-carboxyethyl)-2-chloro-phenoxy]propoxy]propoxy]-3,5-dichloro-phenyl]-1,3-benzoxazole-6-carboxylic acid] | 160 nM | > 100000 nM | 7.27 (1.17) % | 3.99 (0.928) % | – | – | – |
| O=C(O)CCc1cc(Cl)c(OCC[C@@H](O)[C@H](O)CCOc2ccc(Nc3ccccc3C(=O)O)cc2Cl)c(Cl)c1 [Compound B20, 2-[4-[(3R,4R)-6-[4-(2-carboxyethyl)-2,6-dichloro-phenoxy]-3,4-dihydroxy-hexoxy]-3-chloro-anilino]benzoic acid] | 70 nM | 7000 nM | 8.54 (6.10) % | 11.6 (8.30) % | – | – | – |
| O=C(O)CCc1ccc(OCC[C@@H](O)[C@H](O)CCOc2c(Cl)cc(Nc3ccccc3C(=O)O)cc2Cl)c(Cl)c1 [Compound B21, 2-[4-[6-[4-(2-carboxyethyl)-2-chloro-phenoxy]-3,4-dihydroxy-hexoxy]-3,5-dichloro-anilino]benzoic acid] | 70 nM | 4100 nM | 8.31 (6.09) % | 6.43 (3.09) % | – | – | – |
| O=C(O)CCc1ccc(OCC[C@@H](O)[C@H](O)CCOc2ccc(Nc3ccccc3C(=O)O)cc2Cl)c(Cl)c1 [Compound B22, 2-[4-[(3R,4R)-6-[4-(2-carboxyethyl)-2-chloro-phenoxy]-3,4-dihydroxy-hexoxy]-3-chloro-anilino]benzoic acid] | 70 nM | 6400 nM | 15.5 (3.25) % | 6.43 (2.12) % | – | – | – |
| O=C(O)CCc1cc(Cl)c(OCCCOCCOc2c(Cl)cc(Nc3cnncc3C(=O)O)cc2Cl)c(Cl)c1 [Compound B24, 5-[4-[2-[3-[4-(2-carboxyethyl)-2,6-dichloro-phenoxy]propoxy]ethoxy]-3,5-dichloro-anilino]pyridazine-4-carboxylic acid] | 140 nM | 7600 nM | 10.6 (10.5) % | 6.60 (2.40) % | – | – | – |
| O=C(O)CCc1cc(Cl)c(OCCCOCCOc2c(Cl)cc(Nc3ccnnc3C(=O)O)cc2Cl)c(Cl)c1 [Compound B25, 4-[4-[2-[3-[4-(2-carboxyethyl)-2,6-dichloro-phenoxy]propoxy]ethoxy]-3,5-dichloro-anilino]pyridazine-3-carboxylic acid] | 70 nM | 3200 nM | 8.96 (7.24) % | 3.96 (1.04) % | – | 6.97 h | 217 ng/mL |
| O=C(O)CCc1cc(Cl)c(OCCCOCCOc2c(Cl)cc(Nc3cnccc3C(=O)O)cc2Cl)c(Cl)c1 [Compound B26, 3-[4-[2-[3-[4-(2-carboxyethyl)-2,6-dichloro-phenoxy]propoxy]ethoxy]-3,5-dichloro-anilino]pyridine-4-carboxylic acid] | 90 nM | 1400 nM | 4.62 (2.37) % | 3.93 (1.73) % | – | 5.5 h | 1450 ng/mL |
| O=C(O)CCc1cc(Cl)c(OCCCOCCOc2c(Cl)cc(-c3nc4ccc(C(=O)O)cc4o3)cc2Cl)c(Cl)c1 [Compound B28, 2-[4-[2-[3-[4-(2-carboxyethyl)-2,6-dichloro-phenoxy]propoxy]ethoxy]-3,5-dichloro-phenyl]-1,3-benzoxazole-6-carboxylic acid] | 80 nM | 20000 nM | 24.5 (8.90) % | 9.30 (4.32) % | – | – | – |
| O=C(O)CCc1cc(Cl)c(OCCOCCCOc2c(Cl)cc(-c3nc4ccc(C(=O)O)cc4o3)cc2Cl)c(Cl)c1 [Compound B29, 2-[4-[3-[2-[4-(2-carboxyethyl)-2,6-dichloro-phenoxy]ethoxy]propoxy]-3,5-dichloro-phenyl]-1,3-benzoxazole-6-carboxylic acid] | 80 nM | 3600 nM | 19.2 (13.0) % | 7.62 (3.39) % | – | – | – |
